Experiments:
SW48 cells = experiment: Proliferation assay SW48 (CellTiterGlo, 96 hours); conditions: Homo sapiens, SW48, read-out: Proliferation Assay SW48 (GI50)
DLD1-WRN-KO cells = experiment: Proliferation assay DLD1-WRN-KO (CellTiterGlo, 96 hours; off-target effects); conditions: Homo sapiens, read-out: Proliferation Assay DLD1-WRN-KO (GI50)
WRN helicase = WRN helicase (Homo sapiens (Human), UniProt Q14191); experiment: In vitro enzymatic activity assay on WRN helicase (DNA dependent ATPase assay, ADP-Glo); format: biochemical; conditions: geometric means of at least 2 determinations; read-out: WRN ATPase Activity (IC50)
Sequence of WRN helicase (Q14191 517-1238): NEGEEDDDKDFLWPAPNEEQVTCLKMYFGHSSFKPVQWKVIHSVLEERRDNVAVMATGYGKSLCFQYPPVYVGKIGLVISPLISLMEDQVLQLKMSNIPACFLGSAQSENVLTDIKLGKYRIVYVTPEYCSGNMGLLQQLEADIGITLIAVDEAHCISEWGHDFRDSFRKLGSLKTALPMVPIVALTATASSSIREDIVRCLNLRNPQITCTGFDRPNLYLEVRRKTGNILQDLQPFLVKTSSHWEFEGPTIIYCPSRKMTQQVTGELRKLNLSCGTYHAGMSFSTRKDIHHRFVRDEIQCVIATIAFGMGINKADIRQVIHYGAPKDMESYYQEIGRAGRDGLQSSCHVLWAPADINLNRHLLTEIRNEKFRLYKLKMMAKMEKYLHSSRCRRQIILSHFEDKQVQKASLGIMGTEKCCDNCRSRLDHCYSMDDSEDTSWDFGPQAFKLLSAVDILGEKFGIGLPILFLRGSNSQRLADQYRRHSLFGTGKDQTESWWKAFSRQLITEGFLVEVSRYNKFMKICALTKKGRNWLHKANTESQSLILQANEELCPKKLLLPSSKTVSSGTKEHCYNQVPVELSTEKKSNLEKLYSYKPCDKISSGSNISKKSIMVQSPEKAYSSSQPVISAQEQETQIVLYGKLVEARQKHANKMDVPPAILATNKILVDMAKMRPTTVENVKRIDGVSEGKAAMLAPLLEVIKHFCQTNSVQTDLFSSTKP
In short: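 DNA-dependent ATPase activity was measured by ADP-Glo luminescent ADP detection after a 30-min room-temperature reaction. The reaction contained 10 nM WRN (residues N517-P1238), 0.2 nM FLAP26 and 300 µM ATP at pH 7.5 with 2 mM MgCl2. Compounds were tested as 10-point half-log series in duplicate; IC50 values are geometric means from at least two independent experiments.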

SMILES | GI50 (SW48 cells) | GI50 (DLD1-WRN-KO cells) | IC50 (WRN helicase)
CCc1c(N2CCN(C(=O)c3ncccc3O)CC2)c(=O)n2nc(C3=CCOCC3)nc2n1CC(=O)Nc1ccc(C(F)(F)F)nc1Cl [Example 45, N-(2-chloro-6-(trifluoromethyl)pyridin-3-yl)-2-(2-(3,6-dihydro-2H-pyran-4-yl)-5-ethyl-6-(4-(3-hydroxypicolinoyl)piperazin-1-yl)-7-oxo-[1,2,4]triazolo[1,5-a]pyrimidin-4(7H)-yl)acetamide] | 80 nM | > 10000 nM | 130 nM
CCc1c(N2CCN(C(=O)c3ncnc(C)c3O)CC2)c(=O)n2nc(C3=CCOCC3)nc2n1CC(=O)Nc1ccc(C(F)(F)F)nc1Cl [Example 47, N-(2-chloro-6-(trifluoromethyl)pyridin-3-yl)-2-(2-(3,6-dihydro-2H-pyran-4-yl)-5-ethyl-6-(4-(5-hydroxy-6-methylpyrimidine-4-carbonyl)piperazin-1-yl)-7-oxo-[1,2,4]triazolo[1,5-a]pyrimidin-4(7H)-yl)acetamide] | 170 nM | > 10000 nM | 140 nM
CCc1c(N2CCN(C(=O)c3nccc(F)c3O)CC2)c(=O)n2nc(C3=CCOCC3)nc2n1CC(=O)Nc1ccc(C(F)(F)F)nc1Cl [Example 48, N-(2-chloro-6-(trifluoromethyl)pyridin-3-yl)-2-(2-(3,6-dihydro-2H-pyran-4-yl)-5-ethyl-6-(4-(4-fluoro-3-hydroxypicolinoyl)piperazin-1-yl)-7-oxo-[1,2,4]triazolo[1,5-a]pyrimidin-4(7H)-yl)acetamide] | 80 nM | > 10000 nM | 70 nM
CCc1c(N2CCN(C(=O)c3ncnc(C)c3O)CC2)c(=O)n2nc(C3=CCOCC3)nc2n1CC(=O)Nc1cc(F)c(C(F)(F)F)cc1C [Example 50, 2-(2-(3,6-dihydro-2H-pyran-4-yl)-5-ethyl-6-(4-(5-hydroxy-6-methylpyrimidine-4-carbonyl)piperazin-1-yl)-7-oxo-[1,2,4]triazolo[1,5-a]pyrimidin-4(7H)-yl)-N-(5-fluoro-2-methyl-4-(trifluoromethyl)phenyl)acetamide] | 50 nM | > 10000 nM | 30 nM

Further compounds by falling GI50 (SW48 cells), results first:

GI50 (SW48 cells) | GI50 (DLD1-WRN-KO cells) | IC50 (WRN helicase) | SMILES
120 nM | > 10000 nM | 120 nM | CCc1c(N2CCN(C(=O)c3nc(C)cc(F)c3O)CC2)c(=O)n2nc(C3=CCOCC3)nc2n1CC(=O)Nc1ccc(C(F)(F)F)nc1Cl [Example 49, N-(2-chloro-6-(trifluoromethyl)pyridin-3-yl)-2-(2-(3,6-dihydro-2H-pyran-4-yl)-5-ethyl-6-(4-(4-fluoro-3-hydroxy-6-methylpicolinoyl)piperazin-1-yl)-7-oxo-[1,2,4]triazolo[1,5-a]pyrimidin-4(7H)-yl)acetamide]
110 nM | > 10000 nM | 110 nM | CCc1c(N2CCN(C(=O)c3nccc(Cl)c3O)CC2)c(=O)n2nc(C3=CCOCC3)nc2n1CC(=O)Nc1ccc(C(F)(F)F)nc1Cl [Example 46, 2-(6-(4-(4-chloro-3-hydroxypicolinoyl)piperazin-1-yl)-2-(3,6-dihydro-2H-pyran-4-yl)-5-ethyl-7-oxo-[1,2,4]triazolo[1,5-a]pyrimidin-4(7H)-yl)-N-(2-chloro-6-(trifluoromethyl)pyridin-3-yl)acetamide]
30 nM | > 10000 nM | 40 nM | CCc1c(N2CCN(C(=O)c3ncnc(C)c3O)CC2)c(=O)n2nc(C3=CCOCC3)nc2n1CC(=O)Nc1ccc(S(F)(F)(F)(F)F)cc1Cl [Example 51, N-(2-chloro-4-(pentafluorosulfanyl)phenyl)-2-(2-(3,6-dihydro-2H-pyran-4-yl)-5-ethyl-6-(4-(5-hydroxy-6-methylpyrimidine-4-carbonyl)piperazin-1-yl)-7-oxo-[1,2,4]triazolo[1,5-a]pyrimidin-4(7H)-yl)acetamide]
